Experiments:
Format in all cases: functional
[1] = test system: A498; test: Cytotoxicity against Homo sapiens (human) A498 cells after 48 hr by sulforhodamine B assay; conditions: A498, 48 h
[2] = test system: ACHN; test: Cytotoxicity against Homo sapiens (human) ACHN cells after 48 hr by sulforhodamine B assay
[3] = test system: 786-0; test: Cytotoxicity against Homo sapiens (human) 786-0 cells after 48 hr by sulforhodamine B assay; conditions: 786-0, 48 h
[4] = test system: OVCAR-8; test: Cytotoxicity against Homo sapiens (human) OVCAR8 cells after 48 hr by sulforhodamine B assay; conditions: OVCAR-8, 48 h
[5] = test system: OVCAR-5; test: Cytotoxicity against Homo sapiens (human) OVCAR5 cells after 48 hr by sulforhodamine B assay; conditions: OVCAR-5, 48 h
[6] = test system: IGROV-1; test: Cytotoxicity against Homo sapiens (human) IGROV1 cells after 48 hr by sulforhodamine B assay; conditions: IGROV-1, 48 h
[7] = test system: OVCAR-3; test: Cytotoxicity against Homo sapiens (human) OVCAR3 cells after 48 hr by sulforhodamine B assay; conditions: OVCAR-3, 48 h
[8] = test system: SK-MEL-5; test: Cytotoxicity against Homo sapiens (human) SK-MEL-5 cells after 48 hr by sulforhodamine B assay; conditions: SK-MEL-5, 48 h
[9] = test system: SK-MEL-28; test: Cytotoxicity against Homo sapiens (human) SK-MEL-28 cells after 48 hr by sulforhodamine B assay; conditions: SK-MEL-28, 48 h
[10] = test system: SK-MEL-2; test: Cytotoxicity against Homo sapiens (human) SK-MEL-2 cells after 48 hr by sulforhodamine B assay; conditions: SK-MEL-2, 48 h
[11] = test system: M14; test: Cytotoxicity against Homo sapiens (human) M14 cells after 48 hr by sulforhodamine B assay; conditions: M14, 48 h
[12] = test system: U-251; test: Cytotoxicity against Homo sapiens (human) U251 cells after 48 hr by sulforhodamine B assay; conditions: U-251, 48 h
[13] = test system: SF-539; test: Cytotoxicity against Homo sapiens (human) SF539 cells after 48 hr by sulforhodamine B assay; conditions: SF-539, 48 h
[14] = test system: T47D; test: Cytotoxicity against Homo sapiens (human) T47D cells after 48 hr by sulforhodamine B assay
[15] = test system: MDA-MB-435; test: Cytotoxicity against Homo sapiens (human) MDA-MB-435 cells after 48 hr by sulforhodamine B assay; conditions: MDA-MB-435, 48 h
[16] = test system: BT-549; test: Cytotoxicity against Homo sapiens (human) BT549 cells after 48 hr by sulforhodamine B assay; conditions: BT-549, 48 h
[17] = test system: DU-145; test: Cytotoxicity against Homo sapiens (human) DU145 cells after 48 hr by sulforhodamine B assay; conditions: DU-145, 48 h
[18] = test system: MCF7; test: Cytotoxicity against Homo sapiens (human) MCF7 cells after 48 hr by sulforhodamine B assay; conditions: MCF7, 48 h
[19] = test system: UO-31; test: Cytotoxicity against Homo sapiens (human) UO31 cells after 48 hr by sulforhodamine B assay; conditions: UO-31, 48 h
[20] = test system: PC-3; test: Cytotoxicity against Homo sapiens (human) PC3 cells after 48 hr by sulforhodamine B assay; conditions: PC-3, 48 h
[21] = test system: SN12C; test: Cytotoxicity against Homo sapiens (human) SN12C cells after 48 hr by sulforhodamine B assay
[22] = test system: CAKI-1; test: Cytotoxicity against Homo sapiens (human) Caki1 cells after 48 hr by sulforhodamine B assay; conditions: CAKI-1, 48 h
[23] = test system: SF-295; test: Cytotoxicity against Homo sapiens (human) SF295 cells after 48 hr by sulforhodamine B assay; conditions: SF-295, 48 h
[24] = test system: SW-620; test: Cytotoxicity against Homo sapiens (human) SW620 cells after 48 hr by sulforhodamine B assay; conditions: SW-620, 48 h
[25] = test system: HT-29; test: Cytotoxicity against Homo sapiens (human) HT-29 cells after 48 hr by sulforhodamine B assay; conditions: HT-29, 48 h
[26] = test system: NCI-H460; test: Cytotoxicity against Homo sapiens (human) NCI-H460 cells after 48 hr by sulforhodamine B assay; conditions: NCI-H460, 48 h
[27] = test system: NCI-H322M; test: Cytotoxicity against Homo sapiens (human) NCI-H322M cells after 48 hr by sulforhodamine B assay
[28] = test system: NCI-H226; test: Cytotoxicity against Homo sapiens (human) NCI-H226 cells after 48 hr by sulforhodamine B assay; conditions: NCI-H226, 48 h
[29] = test system: HOP-92; test: Cytotoxicity against Homo sapiens (human) HOP92 cells after 48 hr by sulforhodamine B assay; conditions: HOP-92, 48 h
[30] = test system: EKVX; test: Cytotoxicity against Homo sapiens (human) EKVX cells after 48 hr by sulforhodamine B assay
[31] = test system: SF-268; test: Cytotoxicity against Homo sapiens (human) SF268 cells assessed as cell growth at 10^-4 M after 48 hr by […] assay; conditions: SF-268, 48 h, read-out: Activity
[32] = read-out: LC50 (the source's name)

ClCc1ccccc1Cn1cnc2c(Cl)nc(Cl)nc21 gave a GI50 [1] of 2400 nM, an LC50 (lethal concentration, 50% cell kill) [1] of 9.55 µM and a TGI [1] of 4.78 µM. It also gave a GI50 [2] of 470 nM, a TGI [2] of 1620 nM and a CC50 [2, 32] of 4.16 µM. It also gave a GI50 [3] of 1860 nM, an LC50 [3] of 6.45 µM and a TGI [3] of 3.47 µM. The GI50 [4] was 1230 nM, the LC50 (concentration killing 50% of cells) [4] was 6.45 µM and the TGI [4] was 2810 nM. It also gave a GI50 [5] of 1580 nM, a TGI [5] of 2950 nM and a CC50 [5, 32] of 5.62 µM. It also gave a GI50 [6] of 1540 nM, an LC50 [6] of 7.07 µM and a TGI [6] of 3.31 µM. It also gave a GI50 [7] of 210 nM, an LC50 [7] of 1540 nM and a TGI [7] of 510 nM. The GI50 [8] was 420 nM, the LC50 [8] was 4.26 µM and the TGI [8] was 1540 nM. It also gave a GI50 [9] of 1230 nM, a TGI [9] of 3.31 µM and a GI50 [10] of 2180 nM. It also gave an LC50 (concentration killing 50% of cells) [10] of 8.51 µM, a TGI [10] of 4.36 µM and a GI50 [11] of 1380 nM. For the same compound, the LC50 [11] was 5.75 µM, the TGI [11] was 2810 nM and the GI50 [12] was 310 nM. For the same compound, the LC50 (concentration killing 50% of cells) [12] was 4.57 µM, the TGI [12] was 1020 nM and the GI50 [13] was 1470 nM. It also gave an LC50 (concentration killing 50% of cells) [13] of 5.62 µM, a TGI [13] of 2880 nM and a GI50 [14] of 1990 nM. It also gave an LC50 [14] of over 100 µM, a TGI [14] of 5.49 µM and a GI50 [15] of 1620 nM. It also gave an LC50 [15] of 6.45 µM, a TGI [15] of 3.23 µM and a GI50 [16] of 450 nM. For the same compound, the LC50 (50% lethal concentration) [16] was 4.16 µM, the TGI [16] was 1470 nM and the GI50 [17] was 130 nM. The LC50 [17] was 6.31 µM, the TGI [17] was 2950 nM and the GI50 [18] was 810 nM. The LC50 (concentration killing 50% of cells) [18] was over 100 µM, the TGI [18] was 1820 nM and the GI50 [19] was 420 nM. For the same compound, the LC50 (concentration causing 50% net cell kill) [19] was 5.92 µM, the TGI [19] was 1510 nM and the GI50 [20] was 440 nM. It also gave an LC50 (concentration causing 50% cell kill) [20] of 5.12 µM, a TGI [20] of 1620 nM and a GI50 [21] of 720 nM. For the same compound, the LC50 (50% lethal concentration) [21] was 4.67 µM, the TGI [21] was 2040 nM and the GI50 [22] was 360 nM. For the same compound, the TGI [22] was 890 nM, the CC50 [22, 32] was 3.09 µM and the GI50 [23] was 1900 nM. The TGI [23] was 3.38 µM, the CC50 [23, 32] was 6.02 µM and the GI50 [24] was 150 nM. The TGI [24] was 350 nM, the CC50 [24, 32] was 810 nM and the GI50 [25] was 420 nM. For the same compound, the TGI [25] was over 100 µM, the CC50 [25, 32] was over 100 µM and the GI50 [26] was 3.31 µM. It also gave a TGI [26] of 8.71 µM, a CC50 [26, 32] of over 100 µM and a GI50 [27] of 1730 nM. For the same compound, the TGI [27] was 3.27 µM, the CC50 [27, 32] was 5.88 µM and the GI50 [28] was 1730 nM. It also gave a TGI [28] of 3.38 µM, a CC50 [28, 32] of 6.76 µM and a GI50 [29] of 350 nM. The TGI [29] was 970 nM, the GI50 [30] was 1770 nM and the TGI [30] was 3.23 µM. The CC50 [30, 32] was 5.88 µM and the growth at 100 µM [31] was 0%.

From ChEMBL document CHEMBL3044672, “N9- and N7-(Chloromethyl Phenymethyl)Chloropurine Derivatives from , '-Dichloroxylenes: Synthesis and Anticancer Activity” (2005)
